Test results from patent US20030186355A1, “Methods for selecting and producing t cell peptide epitopes and vaccines incorporating said selected epitopes” (priority 2000, published 2003).
Read-outs that look alike come from different tables or passages of the source.

Columns and labels:
TAP [1] = details: previous study, Neisig et al., 1995; cited from earlier work
TAP [2] = experiment: TAP translocation of peptides into the endoplasmic reticulum; assay type: biochemical
T2 cells = experiment: 51Cr cytotoxicity assay with peptide pulsed targets; assay type: cell-based, human; details: targets pulsed at high peptide concentrations
Protocol: CTL activity was measured in a standard chromium release assay. Briefly, after ^51Cr labeling, target cells were pulsed with the designated peptide concentrations for 30 min or longer at 37° C. Target cells were added to various number of effector cells in a final volume of 100 μl complete culture medium in 96-well-U-bottom plates. After 4 h incubation at 37° C. supernatants were harvested.

Sequence	translocation by TAP into the ER (TAP [1])	translocation by TAP into the ER (TAP [2])	also measured
FAPGNYPAL	not efficiently translocated		
FNKSPWFTTL [proteasome fragment of MCF substrate, 10-mer]		efficiently translocated	
FNKSPWFTTLI [proteasome fragment of MCF substrate, 11-mer]		efficiently translocated	
GEFAPGNYPAL [proteasome fragment of Sendai substrate, N-terminally elongated 11-mer]	most efficiently translocated length variant		
KSPWFTTL	not translocated by TAP at all		
LYVDSLFFL [PRAME aa; 301-309, naturally presented in HLA-A24]			lysis of peptide pulsed targets by CTL clones (T2 cells): very low crossreactivity
PSSSWDFITVD [peptide fragment said to be generated by FBL-3 cells]		completely abolishes TAP translocation	
